{"source": "patent US8952024B2", "about": "“Herbicidal pyrimidone derivatives” (E I du Pont de Nemours and Company, priority 2009, dated 2015)", "assay_type_in_all_cases": "in vivo", "key": {"[1]": {"tested_on": "barnyardgrass (Echinochloa crus-galli)", "assay": "Test A pre-/postemergence plant response", "from_the_text": "(§1) Seeds of barnyardgrass (Echinochloa crus-galli), large crabgrass (Digitaria sanguinalis), giant foxtail (Setaria faberii), morningglory (Ipomoea spp.), pigweed (Amaranthus retroflexus), velvetleaf (Abutilon theophrasti), wheat (Triticum aestivum) and corn (Zea mays) were planted into a blend of loam soil and sand and treated preemergence with a directed soil spray using test chemicals formulated in a non-phytotoxic solvent mixture which included a surfactant. At the same time these species were also treated with postemergence applications of test compounds formulated in the same manner.\n(§2) Plants ranged in height from two to ten cm and were in the one- to two-leaf stage for the postemergence treatment. Treated plants and untreated controls were maintained in a greenhouse for approximately ten days, after which time all treated plants were compared to untreated controls and visually evaluated for injury. Plant response ratings, summarized in Table A, are based on a 0 to 100 scale where 0 is no effect and 100 is complete control. A dash (-) response means no test result."}, "[2]": {"tested_on": "velvetleaf (Abutilon theophrasti)", "assay": "Test A pre-/postemergence plant response", "from_the_text": "as §1, §2"}, "[3]": {"tested_on": "giant foxtail (Setaria faberii)", "assay": "Test A pre-/postemergence plant response", "from_the_text": "as §1, §2"}, "[4]": {"tested_on": "wheat (Triticum aestivum)", "assay": "Test A pre-/postemergence plant response", "from_the_text": "as §1, §2"}, "[5]": {"tested_on": "morningglory (Ipomoea spp.)", "assay": "Test A pre-/postemergence plant response", "from_the_text": "as §1, §2"}, "corn (Zea mays)": {"tested_on": "corn (Zea mays)", "assay": "Test A pre-/postemergence plant response", "from_the_text": "as §1, §2"}, "[6]": {"tested_on": "pigweed (Amaranthus retroflexus)", "assay": "Test A pre-/postemergence plant response", "from_the_text": "as §1, §2"}, "[7]": {"tested_on": "large crabgrass (Digitaria sanguinalis)", "assay": "Test A pre-/postemergence plant response", "from_the_text": "as §1, §2"}, "[8]": {"tested_on": "barnyardgrass (Echinochloa crus-galli)", "assay": "Test B flooded paddy test", "details": "for Plant response rating, Barnyardgrass: Flood (flooded paddy test), 13 to 15 days", "in_short": "(§3)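 Post-flood paddy application: compounds are introduced into water 3 cm deep over the soil, reaching plants at the 2-leaf stage. The water level is maintained, and after 13–15 days under greenhouse conditions, response is judged by eye relative to controls, where 100 means complete control.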"}, "[9]": {"tested_on": "ducksalad (Heteranthera limosa)", "assay": "Test B flooded paddy test", "details": "for Plant response rating, Ducksalad: Flood (flooded paddy test), 13 to 15 days", "in_short": "as §3"}, "rice (Oryza sativa)": {"tested_on": "rice (Oryza sativa)", "assay": "Test B flooded paddy test", "details": "for Plant response rating, Rice: Flood (flooded paddy test), 13 to 15 days", "in_short": "as §3"}, "[10]": {"tested_on": "umbrella sedge (Cyperus difformis)", "assay": "Test B flooded paddy test", "details": "for Plant response rating, Sedge, Umbrella: Flood (flooded paddy test), 13 to 15 days", "in_short": "as §3"}, "[11]": {"details": "Postemergence, 125 g ai/ha, 0 to 100 scale where 0 is no effect and 100 is complete control"}, "[12]": {"details": "Postemergence, 500 g ai/ha, visual injury, 0 to 100 scale (0 no effect, 100 complete control), approx. ten days"}, "[13]": {"details": "Preemergence, 125 g ai/ha, 0 to 100 scale, 0 = no effect, 100 = complete control"}, "[14]": {"details": "Preemergence, 500 g ai/ha, 0 to 100 scale, 0 = no effect, 100 = complete control"}, "[15]": {"details": "250 g ai/ha, flooded paddy test, visual rating on 0 to 100 scale (0 no effect, 100 complete control) after 13 to 15 days"}, "[16]": {"details": "62 g ai/ha, scale of 0 to 100 where 0 is no effect and 100 is complete control"}, "[17]": {"details": "125 g ai/ha, scale 0 to 100, 0 is no effect, 100 is complete control"}, "[18]": {"details": "Flood, 31 g ai/ha, scale 0 to 100 (0 no effect, 100 complete control)"}}, "data": [{"smiles": "CCc1ccc(-n2c(-c3cccc(F)c3)ncc(C(=O)C3=C(O)CCCC3=O)c2=O)cc1", "note": "[Compound 204]", "values": [{"measurement": "Plant response rating, Barnyardgrass", "setting": "[1]; [11]", "value": 100}, {"measurement": "Barnyardgrass plant response rating", "setting": "[1]; [12]", "value": 100}, {"measurement": "Plant response rating, Barnyardgrass", "setting": "[1]; [13]", "value": 30}, {"measurement": "Plant response rating, Barnyardgrass", "setting": "[1]; [14]", "value": 80}, {"measurement": "Plant response rating, Velvetleaf", "setting": "[2]; [11]", "value": 100}, {"measurement": "Velvetleaf plant response rating", "setting": "[2]; [12]", "value": 100}, {"measurement": "Plant response rating, Velvetleaf", "setting": "[2]; [13]", "value": 50}, {"measurement": "Plant response rating, Velvetleaf", "setting": "[2]; [14]", "value": 90}, {"measurement": "Plant response rating, Foxtail, Giant", "setting": "[3]; [11]", "value": 30}, {"measurement": "Foxtail, Giant plant response rating", "setting": "[3]; [12]", "value": 100}, {"measurement": "Plant response rating, Foxtail, Giant", "setting": "[3]; [13]", "value": 20}, {"measurement": "Plant response rating, Foxtail, Giant", "setting": "[3]; [14]", "value": 90}, {"measurement": "Plant response rating, Wheat", "setting": "[4]; [11]", "value": 0}, {"measurement": "Wheat plant response rating", "setting": "[4]; [12]", "value": 40}, {"measurement": "Plant response rating, Wheat", "setting": "[4]; [13]", "value": 20}, {"measurement": "Plant response rating, Wheat", "setting": "[4]; [14]", "value": 40}, {"measurement": "Plant response rating, Morningglory", "setting": "[5]; [11]", "value": 30}, {"measurement": "Morningglory plant response rating", "setting": "[5]; [12]", "value": 100}, {"measurement": "Plant response rating, Morningglory", "setting": "[5]; [13]", "value": 0}, {"measurement": "Plant response rating, Morningglory", "setting": "[5]; [14]", "value": 80}, {"measurement": "Plant response rating, Corn", "setting": "corn (Zea mays); [11]", "value": 0}, {"measurement": "Corn plant response rating", "setting": "corn (Zea mays); [12]", "value": 10}, {"measurement": "Plant response rating, Corn", "setting": "corn (Zea mays); [13]", "value": 20}, {"measurement": "Plant response rating, Corn", "setting": "corn (Zea mays); [14]", "value": 20}, {"measurement": "Plant response rating, Pigweed", "setting": "[6]; [11]", "value": 100}, {"measurement": "Pigweed plant response rating", "setting": "[6]; [12]", "value": 100}, {"measurement": "Plant response rating, Pigweed", "setting": "[6]; [13]", "value": 100}, {"measurement": "Plant response rating, Pigweed", "setting": "[6]; [14]", "value": 100}, {"measurement": "Plant response rating, Crabgrass, Large", "setting": "[7]; [11]", "value": 60}, {"measurement": "Crabgrass, Large plant response rating", "setting": "[7]; [12]", "value": 100}, {"measurement": "Plant response rating, Crabgrass, Large", "setting": "[7]; [13]", "value": 40}, {"measurement": "Plant response rating, Crabgrass, Large", "setting": "[7]; [14]", "value": 100}, {"measurement": "Plant response rating, Flood, Barnyardgrass", "setting": "[8]; [15]", "value": 60}, {"measurement": "Plant response rating, Barnyardgrass", "setting": "[8]; [16]", "value": 15}, {"measurement": "Plant response rating, Barnyardgrass", "setting": "[8]; [17]", "value": 25}, {"measurement": "Barnyardgrass plant response rating", "setting": "[8]; [18]", "value": 10}, {"measurement": "Plant response rating, Flood, Ducksalad", "setting": "[9]; [15]", "value": 100}, {"measurement": "Plant response rating, Ducksalad", "setting": "[9]; [16]", "value": 70}, {"measurement": "Plant response rating, Ducksalad", "setting": "[9]; [17]", "value": 90}, {"measurement": "Ducksalad plant response rating", "setting": "[9]; [18]", "value": 50}, {"measurement": "Plant response rating, Flood, Rice", "setting": "rice (Oryza sativa); [15]", "value": 60}, {"measurement": "Plant response rating, Rice", "setting": "rice (Oryza sativa); [16]", "value": 0}, {"measurement": "Plant response rating, Rice", "setting": "rice (Oryza sativa); [17]", "value": 0}, {"measurement": "Rice plant response rating", "setting": "rice (Oryza sativa); [18]", "value": 0}, {"measurement": "Plant response rating, Flood, Sedge, Umbrella", "setting": "[10]; [15]", "value": 95}, {"measurement": "Plant response rating, Sedge, Umbrella", "setting": "[10]; [16]", "value": 75}, {"measurement": "Plant response rating, Sedge, Umbrella", "setting": "[10]; [17]", "value": 90}, {"measurement": "Sedge, Umbrella plant response rating", "setting": "[10]; [18]", "value": 70}]}]}
